According to patent US10105351B2, “Neurofibromatoses therapeutic agents and screening for same” (University of Central Florida Research Foundation, Inc., priority 2012, dated 2018):
Counter-ions that a name gives are not always drawn.

Experiments:
[1] = test system: merlin-null Schwann cells; test: Orthogonal ATP-based luminescence cell viability assay (CellTiter-GLO); conditions: 10 uM; average of two assays with one cell line at P18-23
[2] = test system: merlin-null Schwann cells; test: Primary assay: live cell protease assay (CellTiter-Fluor), cell viability; conditions: 10 uM; 8 replicates, 384 well plate; mean and SD of four assays, two independently derived merlin-null Schwann cell lines at P13-23
[3] = test system: normal nf2^flox2/flox2 Schwann cells; test: Selectivity assay: cell viability of normal Schwann cells; conditions: 10 uM; one assay with mouse nf2^flox2/flox2 Schwann cells at P2

In the case of `CCn1cnc2c(Nc3cccc(Cl)c3)nc(N[C@@H]3CCCC[C@@H]3N)nc21` (relative stereo) [CGP-74514A hydrochloride, N2-(cis-2-Aminocyclohexyl)-N6-(3-chlorophenyl)-9-ethyl-9H-purine-2,6-diamine hydrochloride], the “Orthogonal Assay Average of two, cell viability” value (“Orthogonal Assay Average of two” below) [1] was 16.1 % of DMSO Control, the “Primary Assay (m +/− sd), cell viability” value [2] was 35 +/− 7 % of DMSO Control and the “Selectivity Assay, cell viability” value [3] was 33 % of DMSO Control.
In the case of `CC[n+]1c(C=CC=C2N(C)c3ccccc3C2(C)C)sc2ccccc21.[I-]` [AC-93253 iodide, 2-[3-(1,3-Dihydro-1,3,3-trimethyl-2H-indol-2-ylidene)-1-propenyl]-3-ethyl-benzothiazolium iodide], the “Orthogonal Assay Average of two” value [1] was 24.3 % of DMSO Control, the “Primary Assay (m +/− sd), cell viability” value [2] was 41 +/− 6 % of DMSO Control and the “Selectivity Assay, cell viability” value [3] was 28 % of DMSO Control.
With `O=C1NC(=O)/C(=C/c2ccc3nccnc3c2)S1` [AS605240, 5-(6-Quinoxalinylmethylene)-2,4-thiazolidinedione] the “Orthogonal Assay Average of two” value [1] was 40.1 % of DMSO Control, the “Primary Assay (m +/− sd), cell viability” value [2] was 35 +/− 2 % of DMSO Control and the “Selectivity Assay, cell viability” value [3] was 78 % of DMSO Control.
In the case of `O=C1Nc2cc(Br)ccc2C1C1Nc2ccccc2C1NO` (centres unmarked) [BIO, (2′Z,3′E)-6-Bromoindirubin-3′-oxime], the “Orthogonal Assay Average of two” value [1] was 0.8 % of DMSO Control, the “Primary Assay (m +/− sd), cell viability” value [2] was 20 +/− 8 % of DMSO Control and the “Selectivity Assay, cell viability” value [3] was 31 % of DMSO Control.
With `C[C@@]12C(=O)OC(=O)[C@]1(C)[C@H]1CC[C@@H]2O1` [Cantharidin, cantharidin] the “Orthogonal Assay Average of two” value [1] was 35.2 % of DMSO Control, the “Primary Assay (m +/− sd), cell viability” value [2] was 34 +/− 14 % of DMSO Control and the “Selectivity Assay, cell viability” value [3] was 78 % of DMSO Control.
In the case of `CC(C)(C)c1ccc(C(=O)CCCN2CCC(OC(c3ccccc3)c3ccccc3)CC2)cc1` [Ebastine, ebastine], the “Orthogonal Assay Average of two” value [1] was 0.1 % of DMSO Control and the “Primary Assay (m +/− sd), cell viability” value [2] was 17 +/− 3 % of DMSO Control.
In the case of `OCCN1CCN(CCCN2c3ccccc3Sc3ccc(C(F)(F)F)cc32)CC1` [Fluphenazine dihydrochloride], the “Orthogonal Assay Average of two” value [1] was 45.6 % of DMSO Control, the “Primary Assay (m +/− sd), cell viability” value [2] was 71 +/− 6 % of DMSO Control and the “Selectivity Assay, cell viability” value [3] was 43 % of DMSO Control.
For `O=C1Nc2ccc(I)cc2C1=Cc1cc(Br)c(O)c(Br)c1` [GW5074, 3-(3,5-Dibromo-4-hydroxybenzyliden)-5-iodo-1,3-dihydroindol-2-one], the “Orthogonal Assay Average of two” value [1] was 36.4 % of DMSO Control, the “Primary Assay (m +/− sd), cell viability” value [2] was 24 +/− 7 % of DMSO Control and the “Selectivity Assay, cell viability” value [3] was 31 % of DMSO Control.
With `CC(C)(Sc1ccc(CCN(CCCCC2CCCCC2)C(=O)NC2CCCCC2)cc1)C(=O)O` [GW7647, (2-(4-(2-(1-Cyclohexanebutyl)-3-cyclohexylureido)ethyl)-phenyl-thio)-2-methyl-propionic acid] the “Orthogonal Assay Average of two” value [1] was 6.3 % of DMSO Control, the “Primary Assay (m +/− sd), cell viability” value [2] was 20 +/− 5 % of DMSO Control and the “Selectivity Assay, cell viability” value [3] was 32 % of DMSO Control.
With `O=C(CCCN1CCC(O)(c2ccc(Cl)cc2)CC1)c1ccc(F)cc1` [Haloperidol] the “Orthogonal Assay Average of two” value [1] was 88.8 % of DMSO Control, the “Primary Assay (m +/− sd), cell viability” value [2] was 96 +/− 4 % of DMSO Control and the “Selectivity Assay, cell viability” value [3] was 78 % of DMSO Control.
For `CC(C)c1ccc2c(c1)c(SC(C)(C)C)c(CC(C)(C)C(=O)O)n2Cc1ccc(Cl)cc1` [L663,536, 3-[3-tert-Butylthio-1-(4-chlorobenzyl)-5-isopropyl-1H-indol-2-yl]-2,2-dimethylpropionic acid, sodium salt hydrate], the “Orthogonal Assay Average of two” value [1] was 0.1 % of DMSO Control, the “Primary Assay (m +/− sd), cell viability” value [2] was 16 +/− 3 % of DMSO Control and the “Selectivity Assay, cell viability” value [3] was 31 % of DMSO Control.
For `COc1ccc(Br)cc1S(=O)(=O)NC(=O)/C=C/c1ccccc1Cc1ccc2ccccc2c1` [L-798106, (2E)-N-[(5-bromo-2-methoxyphenyl)sulfonyl]-3-[2-(2-naphthalenylmethyl)phenyl]-2-propenamide], the “Orthogonal Assay Average of two” value [1] was 37.6 % of DMSO Control, the “Primary Assay (m +/− sd), cell viability” value [2] was 35 +/− 13 % of DMSO Control and the “Selectivity Assay, cell viability” value [3] was 33 % of DMSO Control.
`CC[C@H](C)C(=O)O[C@H]1CCC=C2C=C[C@H](C)[C@H](CC[C@@H]3C[C@@H](O)CC(=O)O3)[C@H]21` [Mevastatin, mevastatin] was tested, and the “Orthogonal Assay Average of two” value [1] was 85.1 % of DMSO Control, the “Primary Assay (m +/− sd), cell viability” value [2] was 81 +/− 11 % of DMSO Control and the “Selectivity Assay, cell viability” value [3] was 74 % of DMSO Control.
With `COCC(=O)O[C@]1(CCN(C)CCCc2nc3ccccc3[nH]2)CCc2cc(F)ccc2[C@@H]1C(C)C` [Mibefradil dihydrochloride hydrate, mibefradil] the “Orthogonal Assay Average of two” value [1] was 53.3 % of DMSO Control, the “Primary Assay (m +/− sd), cell viability” value [2] was 67 +/− 9 % of DMSO Control and the “Selectivity Assay, cell viability” value [3] was 32 % of DMSO Control.
With `O=C1c2c(O)ccc(O)c2C(=O)c2c(NCCNCCO)ccc(NCCNCCO)c21` [Mitoxantrone dihydrochloride, 1,4-Dihydroxy-5,8-bis[[2-[(2-hydroxyethyl)amino]ethyl]amino]-9,10-anthracenedione] the “Orthogonal Assay Average of two” value [1] was 36.8 % of DMSO Control, the “Primary Assay (m +/− sd), cell viability” value [2] was 39 +/− 6 % of DMSO Control and the “Selectivity Assay, cell viability” value [3] was 34 % of DMSO Control.
`CCN(CC)CCCCNc1ncc2cc(-c3c(Cl)cccc3Cl)c(NC(=O)NC(C)(C)C)nc2n1` [PD-161570, 1-tert-Butyl-3-[6-(2,6-dichlorophenyl)-2-[[4-(diethylamino)butyl]amino]pyrido[2,3-d]pyrimidin-7-yl]urea] was tested, and the “Orthogonal Assay Average of two” value [1] was 62.4 % of DMSO Control, the “Primary Assay (m +/− sd), cell viability” value [2] was 60 +/− 12 % of DMSO Control and the “Selectivity Assay, cell viability” value [3] was 47 % of DMSO Control.
For `O=C(O)c1ccc2ccccc2c1O.OCc1cc(C(O)CNCCCCCCOCCCCc2ccccc2)ccc1O` (centres unmarked) [Salmeterol xinafoate, salmeterol xinafoate], the “Orthogonal Assay Average of two” value [1] was 73.7 % of DMSO Control, the “Primary Assay (m +/− sd), cell viability” value [2] was 57 +/− 9 % of DMSO Control and the “Selectivity Assay, cell viability” value [3] was 57 % of DMSO Control.
With `O=C(CCCN1CCC2(CC1)C(=O)NCN2c1ccccc1)c1ccc(F)cc1` [Spiroperidol] the “Orthogonal Assay Average of two” value [1] was 84.3 % of DMSO Control, the “Primary Assay (m +/− sd), cell viability” value [2] was 90 +/− 6 % of DMSO Control and the “Selectivity Assay, cell viability” value [3] was 85 % of DMSO Control.
In the case of `CSc1ccc2c(c1)N(CCC1CCCCN1C)c1ccccc1S2` (centres unmarked) [Thioridazine hydrochloride, thioridazine], the “Orthogonal Assay Average of two” value [1] was 67.9 % of DMSO Control, the “Primary Assay (m +/− sd), cell viability” value [2] was 71 +/− 13 % of DMSO Control and the “Selectivity Assay, cell viability” value [3] was 33 % of DMSO Control.
With `CN1CCN(CCCN2c3ccccc3Sc3ccc(C(F)(F)F)cc32)CC1` [Trifluoperazine dihydrochloride, trifluoperazine] the “Orthogonal Assay Average of two” value [1] was 47 % of DMSO Control, the “Primary Assay (m +/− sd), cell viability” value [2] was 78 +/− 6 % of DMSO Control and the “Selectivity Assay, cell viability” value [3] was 47 % of DMSO Control.
